From ChEMBL document CHEMBL4219256, “Design, Synthesis, and Biological Evaluation of 4-Quinoline Carboxylic Acids as Inhibitors of Dihydroorotate Dehydrogenase” (J Med Chem, 2018)

Legend:
[1] = system: MIA PaCa-2; assay: Antiproliferative activity against human MIAPaCa2 cells after 72 hrs by MTT assay; type: functional, cell-based
[2] = system: HCT-116; assay: Antiproliferative activity against human HCT116 cells over-expressing DHODH after 72 hrs by MTT assay; type: functional, cell-based
[3] = biological target: Dihydroorotate dehydrogenase (quinone), mitochondrial (Homo sapiens, UniProt Q02127)
Chain of Dihydroorotate dehydrogenase (quinone), mitochondrial (Q02127 whole entry): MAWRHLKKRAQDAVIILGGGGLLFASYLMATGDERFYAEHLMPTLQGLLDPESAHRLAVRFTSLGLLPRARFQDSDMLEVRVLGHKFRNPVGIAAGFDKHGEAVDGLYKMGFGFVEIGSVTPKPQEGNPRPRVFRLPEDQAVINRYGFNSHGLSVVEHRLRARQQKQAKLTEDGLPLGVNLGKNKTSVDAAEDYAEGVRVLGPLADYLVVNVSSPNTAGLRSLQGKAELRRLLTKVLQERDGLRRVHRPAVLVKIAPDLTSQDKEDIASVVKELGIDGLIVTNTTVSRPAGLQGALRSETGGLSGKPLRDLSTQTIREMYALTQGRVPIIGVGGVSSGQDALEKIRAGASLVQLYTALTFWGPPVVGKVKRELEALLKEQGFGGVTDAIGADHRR
Description: Inhibition of DHODH (unknown origin) expressed in Escherichia coli Rosetta2(DE3) assessed as reduction of DCIP using dihydroorotate as substrate preincubated for 30 mins followed by substrate addition in presence of CoQ10 measured after 1 hr

[4] = system: HL-60; assay: Antiproliferative activity against human HL60 cells after 72 hrs by MTT assay
[5] = Thermodynamic aqueous solubility of the compound in pH 7.4 phosphate buffer at 6.7 mg/ml after overnight incubation by CLND method; type: physicochemical
[6] = Thermodynamic aqueous solubility of the compound in pH 7.4 phosphate buffer at 8.7 mg/ml after overnight incubation by CLND method; type: physicochemical
[7] = Initial plasma concentration in CD-1 mouse at 10 mg/kg, iv; type: ADME, organism-based
[8] = Cmax in CD-1 mouse at 20 mg/kg, po; type: ADME, organism-based; parameters: dose 20 mg/kg, route oral; conditions: in vivo
[9] = Tmax in CD-1 mouse at 20 mg/kg, po; type: ADME, organism-based; conditions: in vivo
[10] = AUC (0 to last) in CD-1 mouse at 10 mg/kg, iv; type: ADME, organism-based; parameters: dose 10 mg/kg, time 0 - last, route intravenous; conditions: in vivo
[11] = AUC (0 to last) in CD-1 mouse at 20 mg/kg, po; type: ADME, organism-based; parameters: dose 20 mg/kg, route oral, time 0 - last; conditions: in vivo
[12] = AUC (0 to infinity) in CD-1 mouse at 10 mg/kg, iv; type: ADME, organism-based; parameters: dose 10 mg/kg, time infinity, route intravenous; conditions: in vivo
[13] = AUC (0 to infinity) in CD-1 mouse at 20 mg/kg, po; type: ADME, organism-based; parameters: dose 20 mg/kg, time infinity, route oral; conditions: in vivo
[14] = Elimination half life in CD-1 mouse at 10 mg/kg, iv; type: ADME, organism-based; conditions: in vivo, read-out: beta t1/2 (converted)
[15] = Elimination half life in CD-1 mouse at 20 mg/kg, po; type: ADME, organism-based; conditions: in vivo, read-out: beta t1/2 (converted)
[16] = Clearance in CD-1 mouse at 10 mg/kg, iv; type: ADME, organism-based; conditions: in vivo
[17] = Apparent clearance in CD-1 mouse at 20 mg/kg, po; type: ADME, organism-based; conditions: in vivo
[18] = Volume of distribution at steady state in CD-1 mouse at 10 mg/kg, iv; type: ADME, organism-based; conditions: in vivo, read-out: Vdss
[19] = Apparent volume of distribution during terminal phase in CD-1 mouse at 20 mg/kg, po; type: ADME, organism-based; conditions: in vivo, read-out: Vz/F
[20] = system: Mus musculus; assay: Oral bioavailability in CD-1 mouse at 20 mg/kg; type: ADME, organism-based; conditions: in vivo
[21] = Thermodynamic aqueous solubility of the compound in pH 7.4 phosphate buffer at 4.9 mg/ml after overnight incubation by CLND method; type: physicochemical
[22] = Thermodynamic aqueous solubility of the compound in pH 7.4 phosphate buffer at 5.8 mg/ml after overnight incubation by CLND method; type: physicochemical
[23] = Solubility of the compound in water at pH 7.4; type: physicochemical
[24] = system: HCT-116; assay: Growth inhibition of human HCT116 cells over-expressing DHODH at 2 times antiproliferative IC50 after 72 hrs in presence of 5 uM uridine by MTT assay; type: functional
[25] = Cmax in human at 8 mg/m2 administered as 10 mins iv infusion; type: ADME, organism-based; parameters: route intravenous; conditions: in vivo
[26] = Cmax in human at 16 mg/m2 administered as 10 mins iv infusion; type: ADME, organism-based; parameters: route intravenous; conditions: in vivo
[27] = AUC (0 to last) in human at 8 mg/m2 administered as 10 mins iv infusion; type: ADME, organism-based; parameters: time 0 - last, route intravenous; conditions: in vivo
[28] = AUC (0 to last) in human at 16 mg/m2 administered as 10 mins iv infusion; type: ADME, organism-based; parameters: route intravenous, time 0 - last; conditions: in vivo
[29] = AUC (0 to last) in human at 36 mg/m2, iv; type: ADME, organism-based; parameters: route intravenous, time 0 - last; conditions: in vivo
[30] = Elimination half life in human at 8 mg/m2 administered as 10 mins iv infusion; type: ADME, organism-based; conditions: in vivo, read-out: beta t1/2 (converted)
[31] = Elimination half life in human at 16 mg/m2 administered as 10 mins iv infusion; type: ADME, organism-based; conditions: in vivo, read-out: beta t1/2 (converted)
[32] = Elimination half life in human at 36 mg/m2, iv; type: ADME, organism-based; conditions: in vivo, read-out: beta t1/2 (converted)
[33] = system: Homo sapiens; assay: Clearance in human at 8 mg/m2 administered as 10 mins iv infusion; type: ADME, organism-based; conditions: in vivo
[34] = system: Homo sapiens; assay: Clearance in human at 16 mg/m2 administered as 10 mins iv infusion; type: ADME, organism-based; conditions: in vivo
[35] = system: Homo sapiens; assay: Volume of distribution at steady state in human at 8 mg/m2 administered as 10 mins iv infusion; type: ADME, organism-based; conditions: in vivo
[36] = system: Homo sapiens; assay: Volume of distribution at steady state in human at 16 mg/m2 administered as 10 mins iv infusion; type: ADME, organism-based; conditions: in vivo
[37] = system: Homo sapiens; assay: Volume of distribution at steady state in human at 36 mg/m2, iv; type: ADME, organism-based; conditions: in vivo
[38] = Thermodynamic aqueous solubility of the compound in pH 7.4 phosphate buffer at 6.2 mg/ml after overnight incubation by CLND method; type: physicochemical
[39] = Thermodynamic aqueous solubility of the compound in pH 7.4 phosphate buffer at 6.4 mg/ml after overnight incubation by CLND method; type: physicochemical

SMILES | IC50 [1] | IC50 [2] | IC50 [3] | also measured
O=C(O)c1cc(-c2ccc(-c3cncnc3)cc2)nc2ccccc12 | > 50 µM | > 50 µM | > 200 µM | 
Cc1ccc(-c2ccc(-c3nc4cnccc4c(C(=O)O)c3C)cc2)c(Cl)n1 | > 100 µM | > 100 µM | 5.26 µM | 
O=C(O)c1cc(-c2ccc(-c3cccnc3C(F)(F)F)cc2)nc2ccccc12 | 8.84 µM | 4.63 µM |  | 
Cc1c(-c2ccc(-c3ccccc3)cc2)nc2cnc(C(F)(F)F)cc2c1C(=O)O | 2.18 µM | 0.88 µM | 0.0212 µM | IC50 [4]: 2.67 µM
Cc1ccncc1-c1ccc(-c2cc(C(=O)O)c3ccccc3n2)cc1 | 17.9 µM | 10.8 µM |  | 
O=C(O)c1cc(-c2ccc(-c3cnccc3C(F)(F)F)cc2)nc2ccccc12 | 8.71 µM | 3.87 µM |  | 
Cc1c(-c2ccc(-c3ccccc3)cc2)nc2cnccc2c1C(=O)O | 4.5 µM | 6.3 µM | 0.0283 µM | IC50 [4]: 7.08 µM; Therm_solubility [5]: 2628.4 µM; Therm_solubility [6]: 3096.3 µM
Cc1c(-c2ccc(-c3ccccc3F)cc2)nc2cnc(C(F)(F)F)cc2c1C(=O)O | 0.454 µM | 0.333 µM | 0.0118 µM | IC50 [4]: 0.401 µM
Cc1c(-c2ccc(-c3cccnc3Cl)cc2)nc2cnccc2c1C(=O)O | > 100 µM | > 100 µM | 0.259 µM | 
Cc1ccc(-c2ccc(-c3nc4ccc(Cl)cc4c(C(=O)O)c3C)cc2)c(Cl)n1 | 7.56 µM | 2.71 µM |  | 
O=C(O)c1cc(-c2ccc(-c3ncccn3)cc2)nc2ccccc12 | > 50 µM | > 50 µM | > 200 µM | 
COC(=O)c1cc(-c2ccc(N3CCCCC3)cc2)nc2ccccc12 | 31.8 µM | 38.2 µM | > 200 µM | 
Cc1c(-c2ccc(-c3ccccc3)cc2)nc2ccncc2c1C(=O)O | 28.1 µM | 26.7 µM | 2.79 µM | 
Cc1c(-c2ccc(-c3ccccc3)cc2)nc2ncccc2c1C(=O)O | > 100 µM | > 100 µM | 1.22 µM | 
COc1ncccc1-c1ccc(-c2cc(C(=O)O)c3ccccc3n2)cc1 | 13.6 µM |  |  | 
Cc1c(-c2ccc(-c3cccnc3Cl)cc2)nc2cnc(C(F)(F)F)cc2c1C(=O)O | 21.5 µM | 25.7 µM | 0.201 µM | 
Cc1c(-c2ccc(-c3cccnc3Cl)cc2)nc2ccc(F)cc2c1C(=O)O | 7.18 µM | 3.02 µM |  | IC50 [4]: 9.28 µM; C0 [7]: 45400 ng/mL; Cmax [8]: 5310 ng/mL; Tmax [9]: 0.25 h; AUC(0-t) [10]: 32300 ng·h/mL; AUC(0-t) [11]: 35900 ng·h/mL; AUC(0-inf) [12]: 32300 ng·h/mL; AUC(0-inf) [13]: 36000 ng·h/mL; half-life [14]: 2.73 h; half-life [15]: 2.78 h; clearance [16]: 5.15 mL/min/kg; CL/F [17]: 9.25 mL/min/kg; Vd [18]: 0.496 L/kg; Vd/F [19]: 2.23 L/kg; F [20]: 56%; Therm_solubility [21]: 982.1 µM; Therm_solubility [22]: 1000.1 µM
COC(=O)c1cc(-c2ccc(C3CCCCC3)cc2)nc2ccccc12 | 37.1 µM | 42.6 µM | > 200 µM | 
COC(=O)c1cc(-c2ccc(-c3cccnc3)cc2)nc2ccccc12 | 6.43 µM | 6.15 µM | > 200 µM | 
Cc1c(-c2ccc(-c3cccnc3F)cc2)nc2ccc(F)cc2c1C(=O)O | 23.6 µM | 5.71 µM |  | 
Cc1ccc(-c2ccc(-c3nc4ccc(F)cc4c(C(=O)O)c3C)cc2)c(Cl)n1 | 6.57 µM | 1.98 µM |  | IC50 [4]: 4.81 µM
CC(C)c1ccc(-c2cc(C(=O)O)c3ccccc3n2)cc1 | 24.2 µM | 19.1 µM |  | 
COc1ccccc1-c1ccc(-c2cc(C(=O)O)c3ccccc3n2)cc1 | 7.45 µM | 2.85 µM |  | 
Cc1c(-c2ccc(-c3ccccc3F)cc2)nc2ccc(F)cc2c1C(=O)O [BREQUINAR] | 1.69 µM | 0.679 µM |  | solubility [23]: < 100 µg/mL; growth inhibition (GI) [24]: <50%; IC50 [4]: 0.544 µM; Cmax [25]: 1800 ng/mL; Cmax [26]: 2700 ng/mL; AUC(0-t) at 10 min [27]: 3200 ng·h/mL; AUC(0-t) at 10 min [28]: 3800 ng·h/mL; AUC(0-t) [29]: 20700 ng·h/mL; half-life [30]: 2.9 h; half-life [31]: 3.1 h; half-life [32]: 4.3 h; CL [33]: 3.2 L/hr/m2; CL [34]: 4.9 L/hr/m2; Vdss [35]: 8.2 L/m2; Vdss [36]: 11.6 L/m2; Vdss [37]: 7.48 L/m2; Therm_solubility [38]: 1085.2 µM; Therm_solubility [39]: 1048.6 µM
O=C(O)c1cc(-c2ccccc2)nc2ccccc12 [CINCHOPHEN] | > 100 µM | > 100 µM | 144 µM | 
